Data on 52 molecules can be found in patent publication US20240130368A1, “HERBICIDAL COMPOSITION” (Nippon Soda Co., Ltd., priority 2021, published 2024).

For this assay, the system named is Ambrosia artemisiifolia. As to the kind of experiment: Test Example 1: seeds on filter paper moistened with chemical solution, herbicidal effect visually evaluated. Format: in vivo. Particulars: visually evaluated 6 days after treatment; for pest or weed control at 0.05 ppm / pest or weed control at 0.8 ppm / pest or weed control at 3.1 ppm / pest or weed control at 12.5 ppm / pest or weed control at 50 ppm / pest or weed control at 0.2 ppm / pest or weed control at 0.012 ppm / pest or weed control at 0.0125 ppm: Ambrosia artemisiifolia, 144 h; for pest or weed control at 0.0125 ppm: amount of active ingredient 0.0125 ppm. On the procedure: As the compound (1), 1-methoxy-3-methyl-6-(1,1-dioxido-8-(trifluoromethyl)thiochroman-5-yl)-7-oxa-3,4-diazabicyclo[4.1.0]hept-4-en-2-one (Compound (I-3)) was used.
The compound (I) or compound (II) was prepared into a 5% emulsion using DMF (containing 1.5% Tween) and diluted with water to a prescribed dosage concentration. Commercially available preparations were dissolved in water and adjusted to a prescribed dosage concentration.
Seeds were soaked in 0.6% sodium hypochlorite for a predetermined time for surface sterilization and washed with water for use (seed disinfection). Seeds of Ambrosia artemisiifolia were used for the test.
Filter paper was placed on a cup (diameter: 10 cm, height: 4 cm) with a lid and moistened with 8 ml of chemical solution, and seeds were sown thereon, and after covering with a lid, grown in a constant temperature room.
The herbicidal effects were visually evaluated, 6 days after the treatment, as the herbicidal effect (%), by comparing with a state of an untreated group using a total of 21 scores of withering index from 0 to 20 (0: mortality rate equivalent to that of the untreated group, 20: mortality rate of 100%).
In addition, the expected values of the herbicidal effects were calculated from the herbicidal effects in a case where the compound (I) alone was applied and the herbicidal effects in a case where the compound (II) alone was applied by using the Colby's formula (Colby, S. R., Calculating synergistic and antagonistic responses of herbicide combinations, Weeds, 15, pp. 20-22 (1967)).
M indicates an herbicidal effect (%) in the application of the compound (I) alone, N indicates an herbicidal effect (%) in the application of the compound (II) alone, and E indicates an expected value (%) of the herbicidal effect in the combined application of the compound (T) and the compound (TT). When the actual measured value (%) of the herbicidal effect in the combined application of the compound (I) and the compound (II) is greater than the expected value E, it can be regarded that the combined application of the compound (I) and the compound (II) has a synergistic effect.

[1] abbreviates: applied alone, amount of active ingredient 0.8 ppm, read-out: Herbicidal effect (%).
Setting [2] is: compound applied alone, amount of active ingredient 3.1 ppm, read-out: Herbicidal effect (%).
The mark [3] stands for this setting: read-out: Herbicidal effect (%), applied alone, amount of active ingredient 12.5 ppm.
Where [4] appears, read: applied alone, amount of active ingredient 50 ppm, read-out: Herbicidal effect (%).
The mark [5] stands for this setting: applied alone, amount of active ingredient 0.2 ppm, read-out: Herbicidal effect (%).
The mark [6] stands for this setting: compound applied alone, amount of active ingredient 0.8 ppm, read-out: Herbicidal effect (%).
Where [7] appears, read: compound applied alone, amount of active ingredient 0.2 ppm, read-out: Herbicidal effect (%).
[8] abbreviates: applied alone, amount of active ingredient 12.5 ppm, read-out: Herbicidal effect (%).
[9] abbreviates: compound applied alone, amount of active ingredient 0.8 ppm.
Where [10] appears, read: compound applied alone, amount of active ingredient 12.5 ppm.
Setting [11] is: compound applied alone, amount of active ingredient 0.012 ppm.
Where [12] appears, read: compound applied alone, amount of active ingredient 0.2 ppm.

Read-outs that look alike come from different tables or passages of the source.

For `COC(=O)c1c(Cl)nn(C)c1S(=O)(=O)NC(=O)Nc1nc(OC)cc(OC)n1` [Halosulfuron-methyl], where the note is “read-out: Herbicidal effect (%), compound applied alone, amount of active ingredient 0.05 ppm”, the pest or weed control at 0.05 ppm was found to be 30%.

With `CCC(CC)Nc1c([N+](=O)[O-])cc(C)c(C)c1[N+](=O)[O-]` [Pendimethalin], the pest or weed control at 0.8 ppm under setting [1] was 20%. Take `Cc1ccccc1CO[C@@H]1C[C@@]2(C(C)C)CC[C@]1(C)O2` (racemic) [Cinmethylin]: the pest or weed control at 3.1 ppm under setting [2] worked out at 50%. `COC(=O)C(C)Oc1ccc(Oc2ncc(C(F)(F)F)cc2Cl)cc1` (stereo not shown) [Haloxyfop-methyl]: under setting [3], the pest or weed control at 12.5 ppm was 10%. In the case of `CSc1nnc(C(C)(C)C)c(=O)n1N` [Metribuzin], under setting [4], the pest or weed control at 50 ppm stood at 0%. On to `CCS(=O)(=O)c1cccnc1S(=O)(=O)NC(=O)Nc1nc(OC)cc(OC)n1` [Rimsulfuron], for which the pest or weed control at 0.2 ppm under setting [5] was determined as 20%. As for `Nc1c([N+](=O)[O-])ccc(Oc2ccccc2)c1Cl` [Aclonifen], where the note is “compound applied alone, amount of active ingredient 50 ppm, read-out: Herbicidal effect (%)”, the pest or weed control at 50 ppm amounted to 20%.

For the molecule `CC1(C)CON(Cc2ccccc2Cl)C1=O` [Clomazone], under setting [5], the pest or weed control at 0.2 ppm came out at 10%. For `O=C(Nc1ccc(F)cc1)c1cccc(Oc2cccc(C(F)(F)F)c2)n1` [Picolinafen], the “Herbicidal effect (%)” value (applied alone, amount of active ingredient 3.1 ppm) stood at 30%. In the case of `CNC(=O)N(C)c1nnc(C(C)(C)C)s1` [Tebuthiuron], for the setting “read-out: Herbicidal effect (%), compound applied alone, amount of active ingredient 50 ppm”, the pest or weed control at 50 ppm came to 20%. Regarding `N#Cc1cc(Br)c(O)c(Br)c1` [Bromoxynil], the pest or weed control at 3.1 ppm (applied alone, amount of active ingredient 3.1 ppm, read-out: Herbicidal effect (%)) was determined as 0%. Consider `Nc1c(Cl)c(F)nc(OCC(=O)O)c1Cl` [Fluroxypyr], for which, under setting [1], the pest or weed control at 0.8 ppm came out at 40%. For the molecule `COc1cc(OC)nc(NC(=O)NS(=O)(=O)c2ncccc2C(=O)N(C)C)n1` [Nicosulfuron], under setting [6], the pest or weed control at 0.8 ppm worked out at 60%. On to `CC(C)c1nn(C(=O)NC(C)(C)C)c(=O)n1N` [Amicarbazone], for which, for the setting “applied alone, amount of active ingredient 50 ppm”, the “Herbicidal effect (%)” value is on record as 0%. Turning to `C#CCN1C(=O)COc2cc(F)c(N3C(=O)C4=C(CCCC4)C3=O)cc21` [Flumioxazin], under “applied alone, amount of active ingredient 0.05 ppm, read-out: Herbicidal effect (%)”, the pest or weed control at 0.05 ppm worked out at 80%. In the case of `CCNc1nc(Cl)nc(NC(C)(C)C)n1` [Terbuthylazine], the pest or weed control at 50 ppm under setting [4] was determined as 0%. For the molecule `CCC(C)(CC)c1cc(NC(=O)c2c(OC)cccc2OC)on1` [Isoxaben], under setting [7], the pest or weed control at 0.2 ppm was found to be 75%. Turning to `CCc1cccc(C)c1N(C(=O)CCl)C(C)COC` (stereo not shown) [Metolachlor], the pest or weed control at 0.8 ppm under setting [6] was found to be 10%. With `Cc1ccn2nc(S(=O)(=O)Nc3c(F)cccc3F)nc2n1` [Flumetsulam], the pest or weed control at 12.5 ppm under setting [8] was determined as 40%. For the molecule S-metolachlor, under setting [9], the “Herbicidal effect (%)” value was 20%. Turning to `CC/C(=N\OC/C=C/Cl)C1=C(O)CC(C2CCOCC2)CC1=O` (stereo not shown) [Tepraloxydim], the pest or weed control at 3.1 ppm (read-out: Herbicidal effect (%), compound applied alone, amount of active ingredient 3.1 ppm) is 10%. On to `c1cc[n+]2c(c1)-c1cccc[n+]1CC2` [Diquat], for which, under “read-out: Herbicidal effect (%), compound applied alone, amount of active ingredient 0.2 ppm”, the pest or weed control at 0.2 ppm worked out at 30%. Turning to `CCC/C(=N\OCC)C1=C(O)CC(CC(C)SCC)CC1=O` (stereo not shown) [Sethoxydim], the pest or weed control at 0.8 ppm (read-out: Herbicidal effect (%), compound applied alone, amount of active ingredient 0.8 ppm) was determined as 0%. Turning to `CN(C)c1nc(=O)n(C2CCCCC2)c(=O)n1C` [Hexazinone], the pest or weed control at 3.1 ppm under setting [2] turned out to be 10%. On to `C/C(=N\NC(=O)Nc1cc(F)cc(F)c1)c1ncccc1C(=O)[O-].[Na+]` [Diflufenzopyr-sodium], for which the “Herbicidal effect (%)” value under setting [10] is reported as 20%.

Take `Cc1nn(-c2cc(NS(C)(=O)=O)c(Cl)cc2Cl)c(=O)n1C(F)F` [Sulfentrazone]: the pest or weed control at 0.012 ppm under setting [11] came out at 0%. In the case of `CS(=O)(=O)c1cc(C(F)(F)F)ccc1C(=O)c1cnoc1C1CC1` [Isoxaflutole], for the setting “compound applied alone”, the pest or weed control at 0.0125 ppm was found to be 40%.

Take `Nc1nc[nH]n1` [Amitrole]: the pest or weed control at 3.1 ppm under setting [2] amounted to 20%. With `CCc1cccc(CC)c1N(COC)C(=O)CCl` [Alachlor], under setting [6], the pest or weed control at 0.8 ppm was 20%. For `Cc1c(C(=O)c2cnn(C)c2O)ccc(S(C)(=O)=O)c1C1=NOCC1` [Topramezone], under setting [12], the “Herbicidal effect (%)” value was 40%. With `O=C(Nc1ccc(F)cc1F)c1cccnc1Oc1cccc(C(F)(F)F)c1` [Diflufenican], the pest or weed control at 0.2 ppm under setting [7] turned out to be 10%. Regarding `FC(F)c1cc(-c2c(Cl)cccc2Oc2ncc(Cl)cn2)on1` [Rimisoxafen], the “Herbicidal effect (%)” value under setting [12] was 25%.

For `COc1c(Cl)ccc(Cl)c1C(=O)O` [Dicamba], the pest or weed control at 0.8 ppm under setting [1] stood at 30%. On to `COC(=O)NS(=O)(=O)c1ccc(N)cc1` [Asulam], for which, under setting [2], the pest or weed control at 3.1 ppm amounted to 20%.

As to `CCSC(C)CC1CC(=O)C(/C(CC)=N/OC/C=C/Cl)=C(O)C1` (stereo not shown) [Clethodim], under setting [3], the pest or weed control at 12.5 ppm came out at 0%. Turning to `CCCN(CCC)c1c([N+](=O)[O-])cc(C(F)(F)F)cc1[N+](=O)[O-]` [Trifluralin], the pest or weed control at 0.8 ppm under setting [1] turned out to be 10%. On to `Cc1cc(Cl)ccc1OCC(=O)O` [MCPA], for which the “Herbicidal effect (%)” value (applied alone, amount of active ingredient 0.2 ppm) is on record as 30%. As to `CC(C)N(C(=O)SCC(Cl)=C(Cl)Cl)C(C)C` [Tri-allate], under setting [8], the pest or weed control at 12.5 ppm came out at 20%. With `CN1C[C@H](c2cccc(C(F)(F)F)c2)[C@@H](C(=O)Nc2ccccc2F)C1=O` [Tetflupyrolimet], the “Herbicidal effect (%)” value (compound applied alone, amount of active ingredient 3.1 ppm) is reported as 70%. On to `CC(C)N(C)S(=O)(=O)NC(=O)c1cc(-n2c(=O)cc(C(F)(F)F)n(C)c2=O)c(F)cc1Cl` [Saflufenacil], for which the pest or weed control at 0.0125 ppm (applied alone) amounted to 60%. Regarding `CCCN(CCC)C(=O)SCc1ccccc1` [Prosulfocarb], the pest or weed control at 0.8 ppm under setting [1] was 20%. For `CCCCC(CC)COC(=O)COc1ccc(Cl)cc1Cl` (stereo not shown) [2,4-D 2-ethylhexyl ester], under “applied alone, amount of active ingredient 0.8 ppm”, the “Herbicidal effect (%)” value is 50%.

As to `Cc1cccc(C2CC2)c1Oc1nnc(Cl)cc1OC(=O)N1CCOCC1` [Cyclopyrimorate], the “Herbicidal effect (%)” value under setting [10] is listed as 40%. Regarding `COC(=O)c1nc(-c2ccc(Cl)c(OC)c2F)cc(N)c1Cl` [Halauxifen-methyl], under setting [11], the “Herbicidal effect (%)” value is listed as 70%. As for `COc1cc(OC)nc(NC(=O)NS(=O)(=O)c2cc(NC=O)ccc2C(=O)N(C)C)n1` [Foramsulfuron], the pest or weed control at 0.8 ppm under setting [1] was 65%. As for `CP(=O)(O)CCC(N)C(=O)O` (stereo not shown) [Glufosinate-ammonium], under setting [3], the pest or weed control at 12.5 ppm was determined as 20%. `CCOC(=O)C(Cl)Cc1cc(-n2nc(C)n(C(F)F)c2=O)c(F)cc1Cl` (stereo not shown) [Carfentrazone-ethyl]: the pest or weed control at 0.8 ppm (read-out: Herbicidal effect (%), applied alone, amount of active ingredient 0.8 ppm) was 50%. Regarding `CON(C)C(=O)Nc1ccc(Cl)c(Cl)c1` [Linuron], the pest or weed control at 12.5 ppm (compound applied alone, amount of active ingredient 12.5 ppm, read-out: Herbicidal effect (%)) turned out to be 10%.

As for `COC[C@H](C)N(C(=O)CCl)c1c(C)csc1C` [Dimethenamid-P], the “Herbicidal effect (%)” value under setting [9] was 30%. Consider `Cc1ccc(NC(=O)N(C)C)cc1Cl` [Chlorotoluron], for which the pest or weed control at 50 ppm under setting [4] came to 40%. Take `NC(=O)c1nc(-c2ccccc2)n(-c2ccc(Cl)c(COCC(F)(F)C(F)(F)F)c2)n1` [Flupoxam]: under setting [11], the pest or weed control at 0.012 ppm amounted to 65%. As to `CS(=O)(=O)c1ccc(C(=O)C2C(=O)CCCC2=O)c([N+](=O)[O-])c1` [Mesotrione], under setting [7], the pest or weed control at 0.2 ppm amounted to 50%.
